Converted amounts (≈) assume the structure as drawn. Like-named read-outs stand apart in the source and are kept apart here. Square brackets hold non-standard residues; d marks the D form. Peptide text beside a SMILES is read from it. * marks the point of attachment. X1 = OC[C@H]1O[C@@H](O[C@H]2[C@H](O)[C@@H](O)[C@H](*)O[C@@H]2CO)[C@H](O)[C@@H](O)[C@H]1O
Legend:
[1] = Equilibrium solubility by shake-flask method (SFM); format: physicochemical
Experimental: The solubility of the unionized form of raw (unprocessed) Lactomorphin was determined by the shake-flask method (SFM) using conditions similar to previously reported. For each reported solubility result, three independent SFM experiments were carried out in parallel in the following solvents (purified water, PBS, NS, methanol, and ethanol). For each experiment, the solid sample of Lactomorphin was added using a spatula to a specific volume of each solvent in closed, light-protected glass vials while shaking the vial until a heterogeneous system of the solid sample and the solvent was achieved. Samples were visually inspected to ensure that solid Lactomorphin was still in excess in each vial. The solution containing solid excess of the Lactomorphin was then capped and allowed to agitate using the shaker for 24 h at room temperature (25 °C). The presence of precipitation was checked after several hours. If dissolution was complete, more solid Lactomorphin was added to the vial.
The pH values of Lactomorphin ampholyte suspensions were adjusted to the isoelectric point to determine the solubilities of the zwitterionic species point and to assure the predominant presence of the unionized form of Lactomorphin. The pH of each Lactomorphin suspension in each solvent (except in methanol and ethanol, which were just measured) was adjusted by using 0.1 M NaOH/0.1 M HCl to a value of 8.5. The pH values for all vials were checked after saturation, several hours after the shaking process started, and after equilibrium was achieved. Separating saturated solution and precipitate by sedimentation was performed, which is more accurate than filtration since the filtration step is labor-intensive and tedious, it has been a known issue that drug loss can occur through membrane absorption during filtration in the SFM [32]. Aliquots of supernatant were then taken out with a micropipette from all saturated solutions and diluted with each corresponding solvent. Analytical HPLC measured the concentration of Lactomorphin in each aliquot in against freshly prepared calibration curves. As mentioned above, three independent SFMs were made for each reported result. Thus, the reported results were the mean of three measured concentrations and the standard deviation of the mean (n = 3, mean ± Standard deviation).
The HPLC system was LC-2010HT next generation HPLC (SHIMADZU Tokyo, Japan), comprised of a degassing unit, low-pressure gradient unit, pump unit, mixer, ultra-fast autosampler, column oven, and a UV-VIS detector with a thermostatted flow cell. System. The analysis was performed by a reverse phase HPLC assay, using Phenomenex Prodigy 5 um ODS (3) 250 × 4.6 mm HPLC Column. Ultraviolet detection was done at 280 nm. Mobile phase conditions were gradient of acetonitrile (CH3CN) in water (H2O) with 0.1% trifluoroacetic acid (F3CCOOH) at a 1 mL/min flow rate. The injection volume was 20 μL; the retention time for Lactomorphin was ~8.5 min. Quantification was determined using peak area and calculated from a nine-point standard curve; standard curve points were prepared by dilution in water.

[2] = Thermal degradation study of solid-state Lactomorphin; format: physicochemical; settings: n = 3
From the text: Forced degradation is a degradation of new drug substances at conditions more severe than accelerated conditions. The FDA and ICH guidance estate the requirement of stability testing data to understand how the quality of drug changes with time under various environmental conditions. Thermal, hydrolysis, oxidation, and photodegradation are commonly used stress study conditions. Knowledge of a molecule’s stability helps select proper formulation and provide adequate storage conditions and shelf life, which is essential for regulatory documentation. As the temperature is one of the most vital factors that affect the stability of a drug material more than the other conditions, in this study, we performed thermal degradation by exposing samples of solid-state Lactomorphin to dry and wet heat.
Samples preparation were done by weighing 25 mg of Lactomorphin, transfer it into a 25 mL volumetric flask, and add 25 mL of water and shake so all the quantity dissolved. Using a calibrated micropipette, transfer 0.20 mL of this 1 mg/mL Lactomorphin stock solution into around 90 (2 mL) glass vials. Freeze-dry all vials so that all vials have accurately 0.2 mg of Lactomorphin after lyophilization. A saturated salt solution of NaCl to achieve about 75% Relative Humidity (RH) and saturated salt solution of P2O5 to reach about 0.00% RH were prepared. Thirty vials contain 0.2 mg of Lactomorphin were kept inside a separate desiccator (tightly closed 20 mL glass vial with saturated NaCl). Another set of 30 vials were kept inside the desiccator (tightly closed 20 mL glass vial with saturated P2O5). All were put in oven fixed at 62 °C temperature. To achieve equal distribution of heat inside the oven for all samples used for the degradation study, they were placed in a metallic block made, especially for this study. The rest of the vials were kept in a desiccator at −80 °C to be used as comparison(control) samples.
According to the regulatory guidelines, there is no specific concentration used for the degradation study; however, 1 mg/mL concentration is recommended. This study used three concentrations by dissolving the stability samples in 0.2 mL, 0.4 mL, and 2 mL water to achieve 1000 μg/mL, 500 μg/mL, and 100 μg/mL concentration, respectively. Analysis of the stability samples was performed every time against a freshly prepared calibration curve and comparison samples (control samples that freshly prepared and injected directly without being exposed to the force degradation conditions) at the following periods: 0.00, 0.08, 0.17, 1, 2, 4, 10, 20, 45, 94 and 133 days. All experiments at each time point and different stability conditions were done in triplicate (n = 3). The HPLC system consisted of a VARIAN ProStar model 330 PDA Detector coupled with a VARIAN ProStar Solvent delivery module and VARIAN ProStar model 430 auto-sampler. The analysis was performed by a reverse phase HPLC assay, using Inspire™ 5 μm C18, 250 × 4.6 mm HPLC Column. Ultraviolet detection was done at 280, 254 and 220 nm, but the quantitation was done at 280 nm only. Mobile phase conditions were gradient according to the above program in Section 2.2.13 and at a flow rate of 1.00 mL/min.

[3] = system: H441 lung adenocarcinoma cells; experiment: Resazurin cell viability assay, H441; settings: 48 h exposure, 0.1, 1, 10 and 1000 µg/mL, resazurin fluorescence, p > 0.05
[4] = system: hCMEC/D3 human cerebral microvascular endothelial cells; experiment: Resazurin cell viability assay, hCMEC/D3; settings: 48 h exposure, 0.1, 1, 10 and 1000 µg/mL, resazurin fluorescence, p > 0.05

With `CC(C)C[C@H](NC(=O)[C@H](Cc1ccccc1)NC(=O)CNC(=O)[C@H](NC(=O)[C@@H](N)Cc1ccc(O)cc1)[C@H](C)O)C(=O)N[C@@H](CO[C@@H]1O[C@H](CO)[C@@H](O[C@@H]2O[C@H](CO)[C@H](O)[C@H](O)[C@H]2O)[C@H](O)[C@H]1O)C(N)=O` [Lactomorphin, H2N-Tyr-D-Thr- Gly-Phe-Leu-Ser-(O-β-Lactoside)-CONH2] (H-Y[dT]GFLS(X1)-NH2) the “Solubility (USP) Definition, PBS” value ([1]; PBS, pH 8.50 (adjusted), 25 °C) was “Freely soluble (Fs) (all these solubility values fell in the range of 100–1000 mg/mL, which is the freely soluble category)”, the solubility thermodynamic at 24 h ([1]; aqueous buffer, thermodynamic from solid, water, NS and PBS, shake-flask, pH 8.5, 25 °C, read-out: aqueous solubility) was over 100 mg/mL and the “Solubility (USP) Definition, Ethanol” value ([1]; ethanol, pH 7.30 (measured), 25 °C) was “Sparingly soluble (sps)”. The “Calculated Log S, NS” value ([1]; from experimental solubility, footnote: S in mMoleunit, NS, pH 8.50) was −0.9, the “Calculated Log S, PBS” value ([1]; from experimental solubility, footnote: S in mMoleunit, PBS, pH 8.50) was −0.3 and the “Calculated Log S, Ethanol” value ([1]; from experimental solubility, footnote: S in mMoleunit, ethanol) was −1.7. For the same compound, the “Calculated Log S, Methanol” value ([1]; from experimental solubility, footnote: S in mMoleunit, methanol) was −1.3, the “Calculated Log S, Water” value ([1]; from experimental solubility, footnote: S in mMoleunit, water, pH 8.50) was −0.6 and the “Solubility (USP) Definition, Methanol” value ([1]; methanol, pH 7.27 (measured), 25 °C) was “Soluble (s)”. For the same compound, the solubility thermodynamic at 24 h ([1]; normal saline (NS), pH 8.5, saline or isotonic, thermodynamic from solid, thermodynamic shake-flask, excess solid, normal saline, pH 8.50 (adjusted), shaken 24 h, 25 °C, HPLC-UV 280 nm, mean ± SD, n = 3, read-out: Solubility in NS) was 140.4 ± 0.32 mg/mL (≈ 139 mM), the “Solubility (USP) Definition, NS” value ([1]; normal saline, pH 8.50 (adjusted), 25 °C) was “Freely soluble (Fs) (all these solubility values fell in the range of 100–1000 mg/mL, which is the freely soluble category)” and the solubility thermodynamic at 24 h ([1]; pH 8.5, aqueous buffer, thermodynamic from solid, thermodynamic shake-flask, excess solid, PBS, pH 8.50 (adjusted), shaken 24 h, 25 °C, HPLC-UV 280 nm, mean ± SD, n = 3, read-out: Solubility in PBS) was 570.3 ± 2 mg/mL (≈ 565 mM). The solubility thermodynamic at 24 h ([1]; pH 8.5, thermodynamic from solid, thermodynamic shake-flask, excess solid raw Lactomorphin, purified water, pH 8.50 (adjusted with 0.1 M NaOH/HCl), shaken 24 h, 25 °C, sedimentation, HPLC-UV 280 nm, mean ± SD, n = 3, read-out: Solubility in Water) was 267 ± 6 mg/mL (≈ 264 mM), the “Solubility in Ethanol” value ([1]; thermodynamic shake-flask, excess solid, ethanol, pH 7.30 (measured), shaken 24 h, 25 °C, HPLC-UV 280 nm, mean ± SD, n = 3) was 18.00 ± 0.00 mg/mL (≈ 17.8 mM) and the “Solubility in Methanol” value ([1]; thermodynamic shake-flask, excess solid, methanol, pH 7.27 (measured), shaken 24 h, 25 °C, HPLC-UV 280 nm, mean ± SD, n = 3) was 45.67 ± 1.00 mg/mL (≈ 45.2 mM). For the same compound, the “Solubility (USP) Definition, Water” value ([1]; water, pH 8.50 (adjusted), 25 °C) was “Freely soluble (Fs) (all these solubility values fell in the range of 100–1000 mg/mL, which is the freely soluble category)”, the “Lactomorphin stability% (remaining%)” value ([2]; solid (lyophilised 0.2 mg), 62 °C / 75% RH, 2 hrs, reconstituted in water to 100, 500, 1000 μg/mL, HPLC-UV 280 nm vs fresh controls) was 59% and the “Lactomorphin stability% (remaining%)” value ([2]; solid, 62 °C / 75% RH, 4 hrs, reconstituted 100, 500, 1000 μg/mL, HPLC-UV 280 nm) was 29%. For the same compound, the “Lactomorphin stability% (remaining%)” value ([2]; solid, 62 °C / 75% RH, 24 h, reconstituted 100, 500, 1000 μg/mL, HPLC-UV 280 nm) was 6%, the “Lactomorphin stability% (remaining%)” value ([2]; solid, 62 °C / RH 0.00%, 10 days, HPLC-UV 280 nm) was “around 60%” and the “Lactomorphin stability% (remaining%)” value ([2]; solid, 62 °C / RH 0.00%, day 94, HPLC-UV 280 nm) was ~ 10%. The “Lactomorphin stability% (remaining%)” value ([2]; solid, 62 °C / RH 0.00%, day 133, HPLC-UV 280 nm) was ~ 10%, the “Lactomorphin stability% (remaining%)” value ([2]; solid, 62 °C / RH 0.00%, up to day 45, HPLC-UV 280 nm) was “around 60%” and the “relative cell viability% vs control” value [3] was “no statistically significant difference”. For the same compound, the “relative cell viability% vs control” value [4] was “no statistically significant difference”.

Reference: paper PMC7824383, “Organic Solution Advanced Spray-Dried Microparticulate/Nanoparticulate Dry Powders of Lactomorphin for Respiratory Delivery: Physicochemical Characterization, In Vitro Aerosol Dispersion, and Cellular Studies” (Pharmaceutics, 2020)
